From US20060160789A1 (priority 2005, published 2006)
Several values for one entry are separate records, joined by “and”; a condition that tells them apart may be missing. Equal entries are not always repeated.

System: patients hospitalized for a laparotomy in the context of digestive surgery
Conditions: human, in vivo

Compound: CN1CCOC(c2ccccc2)c2ccccc2C1 (centres unmarked) [nefopam]
- Morphine PCA over 24 h: 0.255 mg/kg and 0.454 mg/kg
- Morphine titration (mg): 7.5 mg and 9 mg
- Morphine titration (mg/kg): 0.082 mg/kg and 0.130 mg/kg
- Total morphine over 24 h: 0.365 mg/kg and 0.649 mg/kg
- quantity of morphine titration administered for group 4 versus quantity expected if nefopam only had analgesic effects: smaller than that which would have had to be administered to the group if nefopam only had analgesic effects
